Measurements reported in patent US20250353820A1, “ANTIVIRAL PYRAZOLOPYRIDINONE COMPOUNDS” (Novartis AG, priority 2019, published 2025).
Counter-ions that a name gives are not always drawn.

These compounds were tested against human HSV DNA polymerase UL30 (Human herpesvirus 1 (strain 17) (HHV-1) (Human herpes simplex virus 1), UniProt P04293) (assay: biochemical). Conditions: 625 pM HSV polymerase, 20 minutes at room temperature; read-out: HSV-polymerase Biochemical IC50.

With COc1cccnc1NS(=O)(=O)C1(CN2CCc3c(C(=O)NCc4ccc(C#N)cc4)nn(C)c3C2=O)CC1 [Example 159] as the compound, how does the IC50 read?
The IC50 was 423 nM.

With COc1ccc(C)nc1NS(=O)(=O)C1(CN2CCc3c(C(=O)NCc4ccc(C#N)cc4)nn(C)c3C2=O)CC1 [Example 160] as the compound, how does the IC50 read?
The IC50 was 301 nM.

How did the IC50 turn out when Cc1ncccc1NS(=O)(=O)C1(CN2CCc3c(C(=O)NCc4ccc(C#N)cc4)nn(C)c3C2=O)CC1 [Example 161] was run?
Its IC50 is 40 nM.

How did the IC50 turn out when COc1ncccc1NS(=O)(=O)C1(CN2CCc3c(C(=O)NCc4ccc(C#N)cc4)nn(C)c3C2=O)CC1 [Example 162] was run?
Its IC50 is 18 nM.

How did the IC50 turn out when COc1cccc(NS(=O)(=O)C2(CN3CCc4c(C(=O)NCc5ccc(C#N)cc5)nn(C)c4C3=O)CC2)n1 [Example 163] was run?
Its IC50 is 36 nM.

For Cc1cccnc1NS(=O)(=O)C1(CN2CCc3c(C(=O)NCc4ccc(C#N)cc4)nn(C)c3C2=O)CC1 [Example 164], which IC50 is on record?
The IC50 was 185 nM.

With Cc1cc(NS(=O)(=O)C2(CN3CCc4c(C(=O)NCc5ccc(Cl)cc5)nn(C)c4C3=O)CC2)no1 [Example 166] as the compound, how does the IC50 read?
The IC50 was 12 nM.

For Cn1nc(C(=O)NCc2ccc(C#N)cc2)c2c1C(=O)N(CC1(S(=O)(=O)Nc3cc(C4CC4)on3)CC1)CC2 [Example 167], which IC50 is on record?
Its IC50 is 104 nM.

For Cn1nc(C(=O)NCc2ccc(C#N)cc2)c2c1C(=O)N(CC1(S(=O)(=O)C3CCOCC3)CC1)CC2 [Example 169], which IC50 is on record?
Its IC50 is 238 nM.

For Cn1nc(C(=O)NCc2ccc(C#N)cc2)c2c1C(=O)N(CC1(S(=O)(=O)C3(C)COC3)CC1)CC2 [Example 172, N-(4-Cyanobenzyl)-1-methyl-6-((1-((3-methyloxetan-3-yl)sulfonyl)cyclopropyl)methyl)-7-oxo-4,5,6,7-tetrahydro-1H-pyrazolo[3,4-c]pyridine-3-carboxamide], which IC50 is on record?
Its IC50 is 63 nM.

With Cn1nc(C(=O)NCc2ccc(C#N)cc2)c2c1C(=O)N(CC1(S(=O)(=O)C3(CO)COC3)CC1)CC2 [Example 173, N-(4-Cyanobenzyl)-6-((1-((3-(hydroxymethyl)oxetan-3-yl)sulfonyl)cyclopropyl)methyl)-1-methyl-7-oxo-4,5,6,7-tetrahydro-1H-pyrazolo[3,4-c]pyridine-3-carboxamide] as the compound, how does the IC50 read?
The IC50 was 62 nM.

For Cn1nc(C(=O)NCc2ccc(C#N)cc2)c2c1C(=O)N(CC1(S(=O)(=O)C3(CN)COC3)CC1)CC2 [Example 174, 6-((1-((3-(Aminomethyl)oxetan-3-yl)sulfonyl)cyclopropyl)methyl)-N-(4-cyanobenzyl)-1-methyl-7-oxo-4,5,6,7-tetrahydro-1H-pyrazolo[3,4-c]pyridine-3-carboxamide], which IC50 is on record?
Its IC50 is 92 nM.

Which IC50 does the source give for Cn1nc(C(=O)NCc2ccc(Cl)cc2)c2c1C(=O)N(CC1(S(=O)(=O)C(C)(CO)CO)CC1)CC2 [Example 175, N-(4-chlorobenzyl)-6-((1-((1,3-dihydroxy-2-methylpropan-2-yl)sulfonyl)cyclopropyl)methyl)-1-methyl-7-oxo-4,5,6,7-tetrahydro-1H-pyrazolo[3,4-c]pyridine-3-carboxamide] here?
The IC50 was 27 nM.

For COCC(C)(COC)S(=O)(=O)C1(CN2CCc3c(C(=O)NCc4ccc(C#N)cc4)nn(C)c3C2=O)CC1 [Example 179, N-(4-Cyanobenzyl)-6-((1-((1,3-dimethoxy-2-methylpropan-2-yl)sulfonyl)cyclopropyl)methyl)-1-methyl-7-oxo-4,5,6,7-tetrahydro-1H-pyrazolo[3,4-c]pyridine-3-carboxamide], which IC50 is on record?
The IC50 was 61 nM.

How did the IC50 turn out when Cn1nc(C(=O)NCc2ccc(C#N)cc2)c2c1C(=O)N(CC1(S(=O)(=O)C(C)(CN)CO)CC1)CC2 (centres unmarked) [Example 183, 6-((1-((1-Amino-3-hydroxy-2-methylpropan-2-yl)sulfonyl)cyclopropyl)methyl)-N-(4-cyanobenzyl)-1-methyl-7-oxo-4,5,6,7-tetrahydro-1H-pyrazolo[3,4-c]pyridine-3-carboxamide] was run?
The IC50 was 65 nM.

How did the IC50 turn out when Cn1nc(C(=O)NCc2ccc(Cl)cc2)c2c1C(=O)N(CC1(S(=O)(=O)C(C)(C)[C@@H](O)CO)CC1)CC2 [Example 190, (S)—N-(4-Chlorobenzyl)-6-((1-((3,4-dihydroxy-2-methylbutan-2-yl)sulfonyl)cyclopropyl)methyl)-1-methyl-7-oxo-4,5,6,7-tetrahydro-1H-pyrazolo[3,4-c]pyridine-3-carboxamide] was run?
Its IC50 is 20 nM.

Which IC50 does the source give for Cn1nc(C(=O)NCc2ccc(Cl)cc2)c2c1C(=O)N(CC1(S(=O)(=O)C(C)(C)[C@H](O)CO)CC1)CC2 [Example 191, (R)—N-(4-Chlorobenzyl)-6-((1-((3,4-dihydroxy-2-methylbutan-2-yl)sulfonyl)cyclopropyl)methyl)-1-methyl-7-oxo-4,5,6,7-tetrahydro-1H-pyrazolo[3,4-c]pyridine-3-carboxamide] here?
Its IC50 is 11 nM.

How did the IC50 turn out when Cn1nc(C(=O)NCc2ccc(C#N)cc2)c2c1C(=O)N(CC1(S(=O)(=O)C(C)(C)[C@@H](O)CO)CC1)CC2 [Example 192, (S)—N-(4-cyanobenzyl)-6-((1-((3,4-dihydroxy-2-methylbutan-2-yl)sulfonyl)cyclopropyl)methyl)-1-methyl-7-oxo-4,5,6,7-tetrahydro-1H-pyrazolo[3,4-c]pyridine-3-carboxamide] was run?
The IC50 was 30 nM.

With Cn1nc(C(=O)NCc2ccc(C#N)cc2)c2c1C(=O)N(CC1(S(=O)(=O)C(C)(C)[C@H](O)CN)CC1)CC2 [Example 198, (R)-6-((1-((4-amino-3-hydroxy-2-methylbutan-2-yl)sulfonyl)cyclopropyl)methyl)-N-(4-cyanobenzyl)-1-methyl-7-oxo-4,5,6,7-tetrahydro-1H-pyrazolo[3,4-c]pyridine-3-carboxamide] as the compound, how does the IC50 read?
Its IC50 is 23 nM.

With Cn1nc(C(=O)NCc2ccc(C#N)cc2)c2c1C(=O)N(CC1(S(=O)(=O)C3(C(O)CN)CC3)CC1)CC2 (centres unmarked) [Example 208] as the compound, how does the IC50 read?
The IC50 was 22 nM.

Which IC50 does the source give for Cn1nc(C(=O)NCc2ccc(Cl)cc2)c2c1C(=O)N(CC1(S(=O)(=O)C3(C(O)CN)CC3)CC1)CC2 (centres unmarked) [Example 209] here?
The IC50 was 16 nM.

With Cn1nc(C(=O)NCc2ccc(C#N)cc2)c2c1C(=O)N(CC1(S(=O)(=O)C(C)(C)[C@H](N)CO)CC1)CC2 [Example 213, (R)-6-((1-((3-amino-4-hydroxy-2-methylbutan-2-yl)sulfonyl)cyclopropyl)methyl)-N-(4-cyanobenzyl)-1-methyl-7-oxo-4,5,6,7-tetrahydro-1H-pyrazolo[3,4-c]pyridine-3-carboxamide] as the compound, how does the IC50 read?
The IC50 was 48 nM.

With Cn1nc(C(=O)NCc2ccc(Cl)cc2)c2c1C(=O)N(CC1(S(=O)(=O)C(C)(C)[C@H](N)CO)CC1)CC2 [Example 214, (R)-6-((1-((3-Amino-4-hydroxy-2-methylbutan-2-yl)sulfonyl)cyclopropyl)methyl)-N-(4-chlorobenzyl)-1-methyl-7-oxo-4,5,6,7-tetrahydro-1H-pyrazolo[3,4-c]pyridine-3-carboxamide hydrochloride] as the compound, how does the IC50 read?
Its IC50 is 32 nM.

N#Cc1ccc(CNC(=O)c2nn(CCO)c3c2CCN(CC2(S(=O)(=O)C4CC4)CC2)C3=O)cc1 [Example 216, N-(4-Cyanobenzyl)-6-((1-(cyclopropylsulfonyl)cyclopropyl)methyl)-1-(2-hydroxyethyl)-7-oxo-4,5,6,7-tetrahydro-1H-pyrazolo[3,4-c]pyridine-3-carboxamide] was tested. Which IC50 did it give?
The IC50 was 69 nM.

Which IC50 does the source give for CC1(S(=O)(=O)C2(CN3CCc4c(C(=O)NCc5ccc(C#N)cc5)nn(CCO)c4C3=O)CC2)CC1 [Example 217] here?
The IC50 was 26 nM.

O=C(NCc1ccc(Cl)cc1)c1nn(CCO)c2c1CCN(CC1(S(=O)(=O)C3CC3)CC1)C2=O [Example 218] was tested. Which IC50 did it give?
Its IC50 is 50 nM.

For CS(=O)(=O)C1(CN2CCc3c(C(=O)NCc4ccc(Cl)cc4)nn(CCO)c3C2=O)CC1 [Example 219], which IC50 is on record?
Its IC50 is 401 nM.

With CC(C)(CO)S(=O)(=O)C1(CN2CCc3c(C(=O)NCc4ccc(C#N)cc4)nn(CCO)c3C2=O)CC1 [Example 220] as the compound, how does the IC50 read?
The IC50 was 23 nM.

Which IC50 does the source give for CC(C)(CO)S(=O)(=O)C1(CN2CCc3c(C(=O)NCc4ccc(Cl)cc4)nn(CCO)c3C2=O)CC1 [Example 221] here?
The IC50 was 13 nM.

With CC1(S(=O)(=O)C2(CN3CCc4c(C(=O)NCc5ccc(Cl)cc5)nn(CCOCCO)c4C3=O)CC2)CC1 [Example 222, N-(4-Chlorobenzyl)-1-(2-(2-hydroxyethoxy)ethyl)-6-((1-((1-methylcyclopropyl)sulfonyl)cyclopropyl)methyl)-7-oxo-4,5,6,7-tetrahydro-1H-pyrazolo[3,4-c]pyridine-3-carboxamide] as the compound, how does the IC50 read?
Its IC50 is 43 nM.

Which IC50 does the source give for CC1(S(=O)(=O)C2(CN3CCc4c(C(=O)NCc5ccc(Cl)cc5)nn(CCOCCN)c4C3=O)CC2)CC1 [Example 223, 1-(2-(2-aminoethoxy)ethyl)-N-(4-chlorobenzyl)-6-((1-((1-methylcyclopropyl)sulfonyl)cyclopropyl)methyl)-7-oxo-4,5,6,7-tetrahydro-1H-pyrazolo[3,4-c]pyridine-3-carboxamide] here?
Its IC50 is 35 nM.

Which IC50 does the source give for CCC(=O)Cn1nc(C(=O)NCc2ccc(C#N)cc2)c2c1C(=O)N(CC1(S(=O)(=O)C3CC3)CC1)CC2 [Example 227, N-(4-cyanobenzyl)-6-((1-(cyclopropylsulfonyl)cyclopropyl)methyl)-7-oxo-1-(2-oxobutyl)-4,5,6,7-tetrahydro-1H-pyrazolo[3,4-c]pyridine-3-carboxamide] here?
The IC50 was 31 nM.

Which IC50 does the source give for N#Cc1ccc(CNC(=O)c2nn(CC3(O)CC3)c3c2CCN(CC2(S(=O)(=O)C4CC4)CC2)C3=O)cc1 [Example 228, N-(4-Cyanobenzyl)-6-((1-(cyclopropylsulfonyl)cyclopropyl)methyl)-1-((1-hydroxycyclopropyl)methyl)-7-oxo-4,5,6,7-tetrahydro-1H-pyrazolo[3,4-c]pyridine-3-carboxamide] here?
Its IC50 is 56 nM.

CC(C)(O)Cn1nc(C(=O)NCc2ccc(Cl)cc2)c2c1C(=O)N(CC1(S(=O)(=O)C3CC3)CC1)CC2 [Example 229, N-(4-Chlorobenzyl)-6-((1-(cyclopropylsulfonyl)cyclopropyl)methyl)-1-(2-hydroxy-2-methylpropyl)-7-oxo-4,5,6,7-tetrahydro-1H-pyrazolo[3,4-c]pyridine-3-carboxamide] was tested. Which IC50 did it give?
The IC50 was 31 nM.

With CC(C)(O)Cn1nc(C(=O)NCc2ccc(C#N)cc2)c2c1C(=O)N(CC1(S(=O)(=O)C3CC3)CC1)CC2 [Example 230] as the compound, how does the IC50 read?
Its IC50 is 34 nM.

Which IC50 does the source give for CC(C)(O)Cn1nc(C(=O)NCc2ccc(Cl)cc2)c2c1C(=O)N(CC1(S(C)(=O)=O)CC1)CC2 [Example 231] here?
The IC50 was 278 nM.

For CC(C)(O)Cn1nc(C(=O)NCc2ccc(C#N)cc2)c2c1C(=O)N(CC1(S(C)(=O)=O)CC1)CC2 [Example 232], which IC50 is on record?
Its IC50 is 339 nM.

With CCS(=O)(=O)C1(CN2CCc3c(C(=O)NCc4ccc(C#N)cc4)nn(CC(C)(C)O)c3C2=O)CC1 [Example 233] as the compound, how does the IC50 read?
The IC50 was 150 nM.
